Where a SMILES comes first, the peptide text is derived from it.
Assays:
[1] = system: HUVEC; assay: Wound healing assay (HUVEC migration); assay type: cell-based, human; details: compared with control; VGB3 0, 0.015, 0.03, 0.061 μM, 0.03 μg/ml VEGF-A, 2% FBS, 24 h
Experimental: 3 × 10^3 HUVECs were grown to confluence in 96-well plate. The monolayer was mechanically wounded using a sterile pipette tip followed by washing with PBS. The cells were incubated in the serum-starved DMEM medium containing 2% FBS and different concentrations (0, 0.015, 0.03, 0.061 μM) of VGB3 in the presence of (0.03 μg.ml^-1) VEGF-A for 24 h. Then HUVECs were washed with PBS two times and fixed using 4% paraformaldehyde at room temperature. After staining the cells with Giemsa, photographs were taken under a microscope (scale bar: 20 μm; Olympus BX-51, Japan) immediately and after 24 h incubation at the same location. Data are expressed as the average percentage wound closure for each group (n=6) of initial migrated cells at time 0 (T0), or as the percentage inhibition compared with a time-matched control. The wound area (the open area of the scratch) was quantified using ImageJ: (1 - (wound area at 24 h / wound area at 0 h))×100.

[2] = system: human extracellular domains (ECD) of VEGFR1D2; assay: ELISA-based displacement assay (VEGF-A/VEGFR-1 interaction); assay type: binding; details: at 100 μM VGB3; btVEGF165 100 pM; plate coated with VEGFR1D2 ECD 20 ng/well, 5 nM; PBS; peptide 45 min at 37 °C then 2 h with btVEGF-A165; chemiluminescence; triplicate wells
Experimental: A white flat-bottom high-binding 96-well plate (COSTAR 3922) was coated with human extracellular domains (ECD) of VEGFR1D2 (R&D Systems, Abingdon, UK) in PBS (20 ng/well, 5 nM) overnight at 4 °C. The plate was washed twice with 200 μL of wash buffer (PBS containing 0.1% (v/v) Tween 20) and treated with 200 μL of blocking buffer (PBS containing 3% (w/v) BSA) at 37 °C for 2 h, followed by two washes with wash buffer. Volumes of 50 μL of peptide VGB3 solution at twice the desired final concentration in PBS were added in triplicate wells and the plate was kept at 37 °C for 45 min. A solution of btVEGF-A165 (R & D Systems, Abingdon, UK) at twice the desired final concentration (100 pM) in 50 μL PBS was added. After 2 h incubation, the plate was washed two times with wash buffer. […] Volumes of 100 μL of Supersignal West Pico Chemiluminescent Substrate (Pierce, Rockford, IL, USA) were finally added and the chemiluminescence was quantified with a TECAN spectrophotometer plate-reader. The percentages of displacement were calculated by the following formula: 100×[1 – (S − NS)/(MS – NS)] where S is the signal measured, NS is the nonspecific binding signal defined as the signal measured in the absence of coated receptor on the microplate, and MS is the maximum binding signal obtained with btVEGF-A165 without the peptide VGB3.

[3] = system: HUVEC; assay: HUVEC Cytodex 3D bead sprouting assay; assay type: cell-based, human; details: HUVEC Cytodex beads in collagen gel; VGB3 0, 0.015, 0.03, 0.061 μM; VEGF (0.75 pM; method: 0.03 μg/ml VEGF-A); 24 h
Experimental: The fibrin or collagen sprouting angiogenesis assay was performed as previously described. Type I collagen was obtained as previously reported. HUVECs were allowed to attach to Cytodex microcarrier beads (Amersham Pharmacia Biotech, Sweden) by incubation in DMEM medium with 10% FBS for 4 h at 37 °C in 5% CO2 (60 μL of […] Cytodex beads were coated with 400 μl of HUVECs). EC-covered beads were embedded into the collagen gel under sodium bicarbonate conditions (Sigma, St. Louis, Missouri, USA), distributed in 96-well plates (100 μl/well), and placed in a 37 °C, 5% CO2 incubator for 30 min. Then DMEM supplemented with 2% FBS with a range of concentrations (0, 0.015, 0.03, 0.061 μM) of VGB3 in the presence of (0.03 μg.ml^-1) VEGF-A were added on top of the collagen gel. After 24 h, angiogenesis was monitored microscopically. All the capillary-like structures were photographed using an inverted microscope (Olympus BX-51, Japan) with a scale bar of 20 μm, and the number of sprouts grown on beads was quantified by ImageJ software. The assays were performed in triplicate.

displacement of btVEGF165 [2]: up to 63%
SMILES: CC(C)C[C@@H]1NC(=O)CNC(=O)[C@H](CC(=O)O)NC(=O)[C@H](CC(=O)O)NC(=O)[C@@H]2CCCN2C(=O)[C@@H]2CCCN2C(=O)[C@H](CCCNC(=N)N)NC(=O)[C@@H](NC(=O)[C@@H](N)CCC(=O)O)CSSC[C@@H](C(=O)O)NC1=O [VGB3] (HELM PEPTIDE1{E.C.R.P.P.D.D.G.L.C}$PEPTIDE1,PEPTIDE1,2:R3-10:R3$$$V2.0)
migration of wounded HUVEC monolayers [1]: inhibits migration of wounded HUVEC monolayers compared with the control | angiogenesis in vitro (sprouting) [3]: inhibits angiogenesis in vitro

— publication PMC7272640, “Molecular docking, synthesis and biological evaluation of Vascular Endothelial Growth Factor (VEGF) B based peptide as antiangiogenic agent targeting the second domain of the Vascular Endothelial Growth Factor Receptor 1 (VEGFR1D2) for anticancer application” (Signal Transduction and Targeted Therapy, 2020)
